Data taken from patent publication US7715901B2, “Sensitized online BOLD-MRI imaging method” (Yeda Research and Development Co. Ltd., priority 2002, dated 2010).

Assays:
[1] = test system: M2R melanoma xenografts; experiment: Follow up of tumor response after Pd-Bpheid PDT; format: in vivo, mouse
Protocol: (i) Animals, tumor model and PDT Male CD1 nude mice (30 g±2 g) were implanted s.c. with M2R melanoma xenografts. PDT of anesthetized mice was performed on tumors (7-9 mm in diameter), as previously described (Zilberstein et al., 2001), with slight changes to allow for manipulation inside the magnet during MRI recording, or to perform PDT on the anesthetized mouse placed on the microscope stage during IVM. Intravenous (i.v.) Pd-Bpheid administration (5 mg/kg in vehicle, provided by Negma-Lerads Laboratoires, Toussus Le-Noble, France) was immediately followed by fiber optic guided tumor illumination (light spot Ø=1 cm^2, 763 nm, 102 J/cm^2) for 10 minutes, using a 1 W diode laser (CeramOptec GmbH, Bonn, Germany). The experiments were performed inside the magnet during the MRI recording (see details below). Room temperature was kept constant (28° C.) throughout the experiments.
PDT was performed in three modes: (i) for tumor therapy, i.v. Pd-Bpheid administration was immediately followed by transcutaneous illumination; (ii) for MR imaging, Pd-Bpheid administration (by remotely activated i.v. catheterization) and transcutaneous illumination were performed inside the magnet (FIG. 5A); and (iii) for IVM, Pd-Bpheid administration and illumination of the semi-transparent mouse ear were conducted on top of the microscope stage.
Controls: Light control: illumination of tumors in mice administered with vehicle alone (without photosensitizer). Dark control, Pd-Bpheid administered to tumor-bearing mice without illumination. Mice were euthanized (CO2) to avoid tumor burden when tumors reached ≧10% of body weight. All experiments were conducted according to institutional animal welfare regulations.
Male CD1 nude mice, s.c. implanted with M2R melanoma xenografts were i.v.-injected with Pd-Bpheid (5 mg/kg) and instantly illuminated for 10 minutes (102 J/cm^2). Hemorrhagic tumor necrosis (10/11 mice within 24-48 h) was accompanied by a strong inflammatory response. Tumors in untreated (4/4) light (4/4 mice) or dark (4/4 mice) controls continued to grow reaching […] of body […] by 9±3 days. […]

[2] = test system: M2R melanoma tumor blood vessels; experiment: Immunohistochemistry of HNE-protein adducts (lipid peroxidation) in tumors after PDT; format: in vivo, mouse; conditions: tumors dissected 1 hour after PDT
Text: (iii) Immunohistochemistry (IHC): Histological and immunohistological examinations were used for validation of the results obtained during the PDT experiments conducted by MRI and IVM. Dissected tumors were fixed in paraformaldehyde, and embedded in paraffin. IHC of PDT-induced LPO was based on immunodetection of HNE (4-hydroxynonenal), an aldehydic peroxidation product of polyunsaturated fatty acids that forms covalent adducts with proteins by reductive amination and/or Michael type addition (Uchida et al., 1995). PDT-damaged areas were visualized by IHC with anti-HNE. Thus, tumor sections were re-hydrated, blocked with bovine serum albumin for 4 h at 37° C., and treated with rabbit anti-HNE antiserum specifically recognizing HNE adducts (Calbiochem, La Jolla, Calif., USA, 1:400). HRP-conjugated goat anti-rabbit antibody served as 2nd antibody (Jackson, West Grove, Pa., USA) using 3-amino-9-ethylcarbazole as a chromogenic substrate (AEC, Sigma, St. Louis, Mo., USA).
Tumors were dissected 1 hour after PDT, fixed and prepared for IHC. […] In tumors taken from light controls (FIGS. 2B, 2E) or dark controls (data not shown), HNE staining was negative in blood vessels and was seen only in necrotic tumor core (spontaneous, PDT independent). FIGS. 2A, 2B and 2C are parallel adjacent sections of 2D, 2E and 2F, respectively, stained with hematoxylin-eosin.

[3] = test system: mouse ear lobe blood vessels; experiment: Fluorescent intravital microscopy of PDT-induced hemodynamic changes; format: in vivo
Protocol: (iv) Intravital microscopy (IVM). Fluorescent IVM was performed with an upright microscope (Nikon Optiphot 2, Kawasaki, Japan) equipped with a thermoregulated stage (37° C.), a CCD camera (50 fps, Applitech, Tel-Aviv, Israel) and a VCR (JVC model HR-J437MS, Yokohama, Japan) for video recording.
Fluorescent IVM in the nude mouse ear lobe (Proske et al, 2000) was used for analysis of changes in vascular diameter, vascular permeability and blood flow. RBC from a donor mouse were labeled ex vivo with 4-(4-(didecylamino)styryl)-N-methylpyridinium iodide (4-Di-10-ASP, 7.5 μg/ml, Molecular Probes, Eugene, Oreg., USA), as previously described (Neeman et al., 2001). The labeled RBC mixed with TRITC-dextran (256 KDa, 0.5 mg/mouse as blood-pool marker, Sigma, St. Louis, Mo., USA) were i.v. administered to the tumor-bearing mouse (labeled cells comprised 1.17+/−0.08% of host RBC as verified on blood smears) and allowed to circulate for 10 min prior to video recording (mag. ×100, 20 min), starting 5 min prior to Pd-Bpheid/light and ending 5 min after the light was turned-off. Mice were euthanized by CO2 at the end of the experiment.
Fluorescence images of blood vessels were acquired every 2 minutes, before, during and up to 10 minutes after illumination. Two hemodynamic parameters were digitally calculated (Scionimage software, Scion Corp., USA) from these images: (1) Changes in blood vessel diameter (arteriolar and venular), and (2) Extravascular leakage of TRITC-dextran (measured as changes in mean pixel intensity at an 2500 μm^2 extravascular region of interest). Both parameters are presented as % of initial value.
It was reported by us (Zilberstein et al., 2001) and others (Dolmans et al., 2002), that in course of anti-vascular PDT, rapid and intense hemodynamic alterations and stasis are observed in the treated tumor site. In this experiment, fluorescence IVM was used to correlate these hemodynamic changes with the MR signal alterations before, during and after Pd-Bpheid PDT. All IVM experiments were performed on the mouse ear lobe model (Proske et al., 2000), since blood vessels in this area can be easily visualized non-invasively under the microscope. Three hemodynamic parameters were measured: (1) changes in vessel diameter (vasoconstriction), (2) extravascular macromolecular leakage, and (3) red blood cell (RBC) flux. […] Significant changes in vessel diameter or RBC flux were not observed in control animals (FIGS. 3B, D and F). […] Changes in tumor perfusion were assessed before, during and after Pd-Bpheid PDT. Pd-Bpheid administration and immediate illumination of the mouse ear lobe, initiated a rapid decrease in perfusion rate both in arterioles and vennules (open and solid circles, respectively), reaching stasis within 3-4 min (FIG. 3C), while illumination alone had no significant effect (FIG. 3D).

[4] = test system: human blood; experiment: Spectroscopic sPO2 of photosensitized blood
Protocol: sPO2 of photosensitized blood: Optical spectroscopy. Fresh human blood collected in Na-citrate was steered (37° C.) in a sealed optical cuvette (under N2) without or with Pd-Bpheid (100 μg/ml). Online spectroscopic sPO2 determination was performed with a LESA reflectance spectrometer (Biospec, Moscow, Russia) as described (Neeman et al., 2001). Recording was initiated 2 minutes prior to illumination. Ten illumination cycles (1 min each, 170 mW/cm^2) were performed with spectral measurements (8×5 sec) in the intervening periods when the light was turned-off.
For spectroscopic examination, fresh human blood was subjected to spectral analysis of sPO2 during PDT in vitro. […] Upon illumination, a rapid decline in sPO2 was observed reaching a plateau at ˜25% (≧2 minutes of illumination). In the absence of Pd-Bpheid, illumination had no effect.

[5] = test system: human blood; experiment: T2* weighted MRI of photosensitized isolated blood (ex vivo); conditions: for Decline in T2* weighted MR signal intensity of blood: untreated blood = 100%
Protocol: (c) Ex-vivo measurements: Freshly collected human blood in sodium citrate was spun down and re-suspended in autologous plasma to 0.6-0.7 hematocrit to minimize red blood cell (RBC) sedimentation during MRI experiments. Blood samples (500 μl) were placed in 6×50 mm glass tubes (Kimble, Div. of Owens, Ill., USA), sealed under N2 and each placed in a 3.5 ml optical plastic cuvette containing 2 ml of PBS. A proton volume coil was used (field of view 7 cm, slice thickness 2 mm, data was zero filled to matrix 512×512). Data were analyzed as the mean signal intensity of the blood sample relative to the surrounding phosphate-buffered saline (PBS).
For the MRI examination, we next determined the effect of PDT on sPO2 in isolated human blood, as manifested in T2* weighted MR signal intensity, under similar conditions. […] Thus, photosensitization of Pd-Bpheid in blood reduces sPO2 as reflected by a significant decrease in signal intensity of […] MR images in the absence of flow and volume changes.

[6] = test system: M2R melanoma tumor; experiment: Online BOLD-contrast MRI during solid tumor PDT; format: in vivo, mouse
Protocol: (a) Gradient echo (GE) and multiecho gradient echo (MEGE) MR images were acquired on a horizontal 4.7 T Bruker Biospec spectrometer (Rheinstetten, Germany), as described previously (Gilead et al., 1999). Imaging parameters are as follows: slice thickness 0.8 mm, TR 230 ms, TE 10 ms for GE and TE 10, 21.24 and 32.48 ms for MEGE, flip angel 40°, acquisition (AQ) time 117 sec, matrix 256×256 pixels.
(b) Animal studies: Whole body excitation coil and an RF decoupled 1.5 cm surface coil were used for improving signal/noise ratio (field of view 4 cm, slice thickness 0.8 mm). Mice were anesthetized, catheterized, and restrained by adhesive tape (supine/lateral) to locate the tumor above the center of the MRI surface coil; the laser optic fiber was fixed in place to illuminate the tumor area (FIG. 5A). After four sequential images were acquired, mice were treated i.v. with Pd-Bpheid (5 mg/kg) followed by 10 min illumination, while 11 more images were acquired. Room temperature was maintained at 28° C.
(d) Data analysis: MRI data was analyzed using Matlab (The MathWorks Inc., Natick, Mass., USA), Orisis (Version 4.0.9, Geneva, Switzerland) and Paravision 2.1.1 (Bruker, Rheinstetten, Germany). MR signal intensity was derived from each image, either from the region of interest inside the tumor or in control tissue, and normalized to the first image. Response maps were generated by division of each image by the average of the first 2 pre-PDT images. R2* maps were derived by noise weighted linear regression of log(SI), for each pixel. Only pixels with fit of R^2≧0.36 were analyzed. R2*: MRI relaxivity parameter; R^2: statistical correlation parameter.
Having shown that photosensitization of Pd-Bpheid induces changes in blood oxygen levels, we next attempted to detect such changes during PDT of a solid tumor in vivo, using MRI. BOLD-MR imaging was applied before, during and after PDT of the solid subcutaneous M2R melanoma tumor. Pd-Bpheid administration, followed by instant tumor illumination, induced a profound decrease in the MR signal intensity (25-40%) solely within the illuminated tumor area (FIGS. 5C, 6A and 6E). […] MR signal attenuation developed during the first 6-7 minutes of illumination and remained low throughout the experiment.
The MRI value ΔR2* (relaxivity difference in T2*-weighted acquisitions) is dependent only on changes in blood oxygenation and volume, and is not dependent on blood flow.

[7] = test system: normal canine prostate; conditions: dog, in vivo; cited from earlier work
[8] = test system: melanoma, glioma, sarcoma and human prostate xenografts; conditions: cited from earlier work; for Cure rates after anti-vascular PDT: mice and rats

Molecule: CC[C@H]1c2cc3[n-]c4c(c3C)C(=O)[C@H](C(=O)OC)c4c3nc(cc4[n-]c(cc(n2)[C@@H]1C)c(C(C)=O)c4C)[C@@H](C)[C@@H]3CCC(=O)O.[Pd+2] [Pd-Bpheid, Palladium-bacteriopheophorbide]
- Hemorrhagic tumor necrosis (responding/treated mice) ([1]; 5 mg/kg i.v., instant illumination 10 min, 102 J/cm^2, within 24-48 h): 10/11
- Tumors continued to grow (dark control, Pd-Bpheid without illumination) ([1]; 5 mg/kg, no light): 4/4
- Tumor outcome in visual follow-up ([1]; one mouse, 5 mg/kg i.v., 763 nm, 102 J/cm^2, day 54 post treatment): cure
- HNE adduct immunostaining (ROS-induced LPO) [2]: massive generation of HNE adducts co-localized with tumor blood vessels
- Reduction in arteriolar diameter ([3]; 2-3 minutes after onset of illumination): about 50%
- Blood flow (RBC flux) ([3]; 2-6 minutes after onset of illumination): sharp decline in blood flow
- Time to complete blood stasis after onset of illumination ([3]; FIG. 3C): 6 to 7 min
- Time to stasis (perfusion rate in arterioles and venules) ([3]; FIG. 3C, immediate illumination of ear lobe): 3 to 4 min
- Extravascular TRITC-dextran (256 KDa) leakage, highest level ([3]; at end of illumination period, ± S.E.): 145±8 % of baseline
- sPO2 plateau upon illumination ([4]; Pd-Bpheid 100 μg/ml, 170 mW/cm^2, ≧2 minutes of illumination): ~25%
- Decline in sPO2 ([4]; within the first min of illumination, FIG. 4A): ~75%
- Decline in T2* weighted MR signal intensity of blood ([5]; 1 min illumination): 38.1%
- Decline in T2* weighted MR signal intensity of blood ([5]; 5 min illumination): 74.4%
- MR signal intensity of dark control blood ([5]; Pd-Bpheid without light): essentially identical to that of untreated blood
- Decrease in MR signal intensity in illuminated tumor ([6]; 5 mg/kg i.v., 10 min illumination): 25-40%
- Change in MR signal intensity, dark tumor control ([6]; Pd-Bpheid without illumination, FIG. 6C): No detectable change in signal intensity
- Time to generation of photosensitized MR BOLD-contrast ([6]; during PDT): ≤ 2 min
- Time over which MR signal attenuation developed ([6]; from onset of illumination): 6 to 7 min
- Outcome of PDT in canine prostate [7]: full necrosis of the tumor without functional urethral damage or damage to other adjacent tissues
- Incidence of metastasis compared with conventional surgery ([8]; Schreiber et al., 2002): decreased the incidence of metastasis
- Cure rates after anti-vascular PDT [8]: high cure rates

Molecule: bacteriochlorophyll-serine [Bchl-Ser, reference compound]
- Cure rates after anti-vascular PDT [8]: high cure rates
